Values after ≈ are worked out from the molar mass of the structure shown. A value given as a limit tells only on which side of the number the result lay.

Test [1] relates to Staphylococcus aureus. Description: Antibacterial activity against vancomycin-sensitive Staphylococcus aureus Newman assessed as inhibition of bacterial growth after 16 hrs. Type of test: functional, organism-based.
The subject of test [2] is Staphylococcus aureus. In words: Antibacterial activity against vancomycin-intermediate resistant Staphylococcus aureus Mu50 assessed as inhibition of bacterial growth after 16 hrs. To be noted: Mu50, 16 h. Type of test: functional, organism-based.

In the case of `CN[C@H](CC(C)C)C(=O)N[C@H]1C(=O)N[C@@H](CC(N)=O)C(=O)N[C@H]2C(=O)N[C@H]3C(=O)N[C@H](C(=O)N[C@H](C(=O)O)c4cc(O)cc(O)c4-c4cc3ccc4O)[C@H](O)c3ccc(c(Cl)c3)Oc3cc2cc(c3O[C@@H]2O[C@H](CO)[C@@H](O)[C@H](O)[C@H]2O[C@H]2C[C@](C)(NCC(OCc3ccccc3)C(=O)OC)[C@H](O)[C@H](C)O2)Oc2ccc(cc2Cl)[C@H]1O` (stereo not given in full), the IC50 in the test on Staphylococcus aureus [1] was 8 µg/mL (≈ 4.87 µM); in the test on Staphylococcus aureus [2] it was 32 µg/mL (≈ 19.5 µM).
For the molecule `CN[C@H](CC(C)C)C(=O)N[C@H]1C(=O)N[C@@H](CC(N)=O)C(=O)N[C@H]2C(=O)N[C@H]3C(=O)N[C@H](C(=O)N[C@H](C(=O)O)c4cc(O)cc(O)c4-c4cc3ccc4O)[C@H](O)c3ccc(c(Cl)c3)Oc3cc2cc(c3O[C@@H]2O[C@H](CO)[C@@H](O)[C@H](O)[C@H]2O[C@H]2C[C@](C)(NCC(OCc3ccccc3)C(=O)O)[C@H](O)[C@H](C)O2)Oc2ccc(cc2Cl)[C@H]1O` (stereo not given in full), the half-maximal inhibitory concentration (IC50) in the test with Staphylococcus aureus [1] was determined as 16 µg/mL (≈ 9.83 µM); in the test with Staphylococcus aureus [2] it was 64 µg/mL (≈ 39.3 µM).
On the same counts, the results for `CN[C@H](CC(C)C)C(=O)N[C@H]1C(=O)N[C@@H](CC(N)=O)C(=O)N[C@H]2C(=O)N[C@H]3C(=O)N[C@H](C(=O)N[C@H](C(=O)O)c4cc(O)cc(O)c4-c4cc3ccc4O)[C@H](O)c3ccc(c(Cl)c3)Oc3cc2cc(c3O[C@@H]2O[C@H](CO)[C@@H](O)[C@H](O)[C@H]2O[C@H]2C[C@](C)(NCc3ccc(-c4ccc(Cl)cc4)cc3)[C@H](O)[C@H](C)O2)Oc2ccc(cc2Cl)[C@H]1O` are less than 0.125 µg/mL and 2 µg/mL (≈ 1.21 µM).
For `CCCCCCOC(CN[C@@]1(C)C[C@H](O[C@H]2[C@H](Oc3c4cc5cc3Oc3ccc(cc3Cl)[C@@H](O)[C@@H](NC(=O)[C@@H](CC(C)C)NC)C(=O)N[C@@H](CC(N)=O)C(=O)N[C@H]5C(=O)N[C@H]3C(=O)N[C@H](C(=O)N[C@H](C(=O)O)c5cc(O)cc(O)c5-c5cc3ccc5O)[C@H](O)c3ccc(c(Cl)c3)O4)O[C@H](CO)[C@@H](O)[C@@H]2O)O[C@@H](C)[C@H]1O)C(=O)O` (stereo not given in full) the same measures were 4 µg/mL (≈ 2.47 µM) and 8 µg/mL (≈ 4.93 µM).
With `CN[C@H](CC(C)C)C(=O)N[C@H]1C(=O)N[C@@H](CC(N)=O)C(=O)N[C@H]2C(=O)N[C@H]3C(=O)N[C@H](C(=O)N[C@H](C(=O)O)c4cc(O)cc(O)c4-c4cc3ccc4O)[C@H](O)c3ccc(c(Cl)c3)Oc3cc2cc(c3O[C@@H]2O[C@H](CO)[C@@H](O)[C@H](O)[C@H]2O[C@H]2C[C@](C)(NCC(OCc3ccc(-c4ccc(Cl)cc4)cc3)C(=O)O)[C@H](O)[C@H](C)O2)Oc2ccc(cc2Cl)[C@H]1O` (stereo not given in full), the IC50 in the test with Staphylococcus aureus [1] was less than 0.125 µg/mL; in the test on Staphylococcus aureus [2] it was 2 µg/mL (≈ 1.15 µM).
With `CCCCOC(CN[C@@]1(C)C[C@H](O[C@H]2[C@H](Oc3c4cc5cc3Oc3ccc(cc3Cl)[C@@H](O)[C@@H](NC(=O)[C@@H](CC(C)C)NC)C(=O)N[C@@H](CC(N)=O)C(=O)N[C@H]5C(=O)N[C@H]3C(=O)N[C@H](C(=O)N[C@H](C(=O)O)c5cc(O)cc(O)c5-c5cc3ccc5O)[C@H](O)c3ccc(c(Cl)c3)O4)O[C@H](CO)[C@@H](O)[C@@H]2O)O[C@@H](C)[C@H]1O)C(=O)O` (stereo not given in full), the IC50 was 64 µg/mL (≈ 40.2 µM) in the test on Staphylococcus aureus [1] and 128 µg/mL (≈ 80.3 µM) in the test on Staphylococcus aureus [2].
On the same counts, the results for `CN[C@H](CC(C)C)C(=O)N[C@H]1C(=O)N[C@@H](CC(N)=O)C(=O)N[C@H]2C(=O)N[C@H]3C(=O)N[C@H](C(=O)N[C@H](C(=O)O)c4cc(O)cc(O)c4-c4cc3ccc4O)[C@H](O)c3ccc(c(Cl)c3)Oc3cc2cc(c3O[C@@H]2O[C@H](CO)[C@@H](O)[C@H](O)[C@H]2O[C@H]2C[C@](C)(NCC(OCc3ccc(-c4ccc(Cl)cc4)cc3)C(=O)OC)[C@H](O)[C@H](C)O2)Oc2ccc(cc2Cl)[C@H]1O` (stereo not given in full) are less than 0.125 µg/mL and 2 µg/mL (≈ 1.14 µM).
As for `CCCCCCOC(CN[C@@]1(C)C[C@H](O[C@H]2[C@H](Oc3c4cc5cc3Oc3ccc(cc3Cl)[C@@H](O)[C@@H](NC(=O)[C@@H](CC(C)C)NC)C(=O)N[C@@H](CC(N)=O)C(=O)N[C@H]5C(=O)N[C@H]3C(=O)N[C@H](C(=O)N[C@H](C(=O)O)c5cc(O)cc(O)c5-c5cc3ccc5O)[C@H](O)c3ccc(c(Cl)c3)O4)O[C@H](CO)[C@@H](O)[C@@H]2O)O[C@@H](C)[C@H]1O)C(=O)OC` (stereo not given in full), the IC50 was determined as 2 µg/mL (≈ 1.22 µM) in the test with Staphylococcus aureus [1] and 4 µg/mL (≈ 2.45 µM) in the test on Staphylococcus aureus [2].
With `CN[C@H](CC(C)C)C(=O)N[C@H]1C(=O)N[C@@H](CC(N)=O)C(=O)N[C@H]2C(=O)N[C@H]3C(=O)N[C@H](C(=O)N[C@H](C(=O)O)c4cc(O)cc(O)c4-c4cc3ccc4O)[C@H](O)c3ccc(c(Cl)c3)Oc3cc2cc(c3O[C@@H]2O[C@H](CO)[C@@H](O)[C@H](O)[C@H]2O[C@H]2C[C@](C)(N)[C@H](O)[C@H](C)O2)Oc2ccc(cc2Cl)[C@H]1O` [VANCOMYCIN], the values for the 50% inhibitory concentration (IC50) in the test on Staphylococcus aureus [1] and in the test on Staphylococcus aureus [2] were 2 µg/mL (≈ 1.38 µM) and 8 µg/mL (≈ 5.52 µM), respectively.
On the same counts, the results for `CCCCOC(CN[C@@]1(C)C[C@H](O[C@H]2[C@H](Oc3c4cc5cc3Oc3ccc(cc3Cl)[C@@H](O)[C@@H](NC(=O)[C@@H](CC(C)C)NC)C(=O)N[C@@H](CC(N)=O)C(=O)N[C@H]5C(=O)N[C@H]3C(=O)N[C@H](C(=O)N[C@H](C(=O)O)c5cc(O)cc(O)c5-c5cc3ccc5O)[C@H](O)c3ccc(c(Cl)c3)O4)O[C@H](CO)[C@@H](O)[C@@H]2O)O[C@@H](C)[C@H]1O)C(=O)OC` (stereo not given in full) are 16 µg/mL (≈ 9.95 µM) and 64 µg/mL (≈ 39.8 µM).

For the origin of these results see ChEMBL document CHEMBL3259801, “Design and synthesis of new vancomycin derivatives” (Bioorg Med Chem Lett, 2014).
